The results in this text go back to ChEMBL document CHEMBL3217500, “Identification of a novel nanomolar inhibitor of hIcmt via a carboxylate replacement approach” (Medchemcomm, 2012).

Experiment [1] addresses T1, Protein-S-isoprenylcysteine O-methyltransferase (Homo sapiens, UniProt O60725). The experiment can be described thus: Activity at human isoprenylcysteine carboxyl methyltransferase using [14C]SAM by vapor diffusion assay relative to AFC.
Experiment [2] addresses T1, Protein-S-isoprenylcysteine O-methyltransferase. The experiment can be described thus: Inhibition of human isoprenylcysteine carboxyl methyltransferase using [14C]SAM and N-acetyl-S-farnesyl-L-cysteine as substrate at 10 uM after 30 mins by vapor diffusion assay.
The target is the same in experiment [3]. The experiment can be described thus: Inhibition of isoprenylcysteine carboxyl methyltransferase in human Jurkat cells assessed as mislocalization of GFP-K-Ras at 45 uM after 24 hrs by fluorescence microscopic analysis. Type of experiment: cell-based.
For experiment [4] the target is unchanged. The experiment can be described thus: Inhibition of isoprenylcysteine carboxyl methyltransferase in human Jurkat cells assessed as mislocalization of GFP-K-Ras at 10 uM after 24 hrs by fluorescence microscopic analysis. Type of experiment: cell-based.
Experiment [5] shares this target. The experiment can be described thus: Un-competitive inhibition of human isoprenylcysteine carboxyl methyltransferase using [14C]SAM and N-acetyl-S-farnesyl-L-cysteine as substrate by Lineweaver-Burk plot analysis.
The target is the same in experiment [6]. The experiment can be described thus: Inhibition of human isoprenylcysteine carboxyl methyltransferase using [14C]SAM and N-acetyl-S-farnesyl-L-cysteine as substrate after 30 mins by vapor diffusion assay.
Experiment [7] shares this target. The experiment can be described thus: Competitive inhibition of human isoprenylcysteine carboxyl methyltransferase using [14C]SAM and N-acetyl-S-farnesyl-L-cysteine as substrate by Lineweaver-Burk plot analysis.

SMILES strings stand for the structures. Activity calls are given as the source filed them. No cut-off for these calls is given here.

T1 sequence (O60725 whole entry, the tested form may be a part): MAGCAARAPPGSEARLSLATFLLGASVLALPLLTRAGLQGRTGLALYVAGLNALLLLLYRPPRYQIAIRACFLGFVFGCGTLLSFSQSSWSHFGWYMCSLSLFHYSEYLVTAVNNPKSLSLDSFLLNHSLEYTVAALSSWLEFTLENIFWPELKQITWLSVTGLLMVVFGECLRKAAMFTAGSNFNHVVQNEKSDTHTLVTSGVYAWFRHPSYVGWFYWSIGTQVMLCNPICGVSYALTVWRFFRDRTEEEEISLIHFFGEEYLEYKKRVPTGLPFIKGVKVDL

With `CC(=O)CSC/C=C(\C)CC/C=C(\C)CCC=C(C)C`, the result in experiment [1] was inactive. Moreover, in experiment [2], the inhibition (usually the percentage by which the read-out fell short of the control) was found to be 25%.

With `CCOC(=O)NCCSC/C=C(\C)CC/C=C(\C)CCC=C(C)C`, in experiment [1], the outcome was inactive. Also, the inhibition in experiment [2] worked out at 10%.

Take `CCOP(=O)(CCSC/C=C(\C)CC/C=C(\C)CCC=C(C)C)OCC`: the result in experiment [1] was inactive. For the same molecule, the inhibition in experiment [2] was 36%.

In turn, `CC(C)=CCC/C(C)=C/CC/C(C)=C/CSc1ccccc1C(=O)O` returned an inhibition in experiment [2] of 40%.

With `CC(C)=CCC/C(C)=C/CC/C(C)=C/CCSCCO`, in experiment [1], the outcome was inactive. In addition, the inhibition in experiment [2] was 20%.

`CC(C)=CCC/C(C)=C/CSCC(=O)O`: the outcome in experiment [1] was inactive. This molecule also returned an inhibition in experiment [2] of 0%.

On to `CC(C)=CCC/C(C)=C/CC/C(C)=C/CSCCN=[N+]=[N-]`, for which the outcome in experiment [1] was inactive. Also, the inhibition in experiment [2] is 11%.

As to `COC(=O)C(C)(C)SC/C=C(\C)CC/C=C(\C)CCC=C(C)C`, in experiment [1], the outcome was inactive. In experiment [2], the inhibition is 8%.

With `CC(C)=CCC/C(C)=C/CC/C(C)=C/CSCCN`, in experiment [1], the result was inactive. Moreover, in experiment [2], the inhibition came out at 6%.

Take `CC(C)=CCC/C(C)=C/CC/C(C)=C/CSC(C)C`: in experiment [1], the outcome was inactive. Also, the inhibition in experiment [2] amounted to 0%.

On to `CC(C)=CCC/C(C)=C/CC/C(C)=C/CSCC1OCCO1`, for which, in experiment [1], the outcome was inactive. Also, the inhibition in experiment [2] was found to be 9%.

Take `CC(C)=CCC/C(C)=C/CC/C(C)=C/CSCCC(=O)O`: the Activity in experiment [1] is 50%. For the same molecule, the inhibition in experiment [2] was 28%.

In the case of `CC(=O)OCCSC/C=C(\C)CC/C=C(\C)CCC=C(C)C`, in experiment [1], the outcome was inactive. In experiment [2], this molecule registered an inhibition of 27%.

Consider `CCCSC/C=C(\C)CC/C=C(\C)CCC=C(C)C`, for which the result in experiment [1] was inactive. The molecule further registered an inhibition in experiment [2] of 0%.

`CC(C)=CCC/C(C)=C/CC/C(C)=C/CSCCCBr`: in experiment [1], the result was inactive. The same molecule yielded an inhibition in experiment [2] of 9%.

As for `CC(C)=CCC/C(C)=C/CC/C(C)=C/CSCC(N)=O`, the outcome in experiment [1] was inactive. For the same molecule, in experiment [2], the inhibition was determined as 47%.

For `CC(C)=CCC/C(C)=C/CC/C(C)=C/CSCCS`, the outcome in experiment [1] was inactive. The inhibition in experiment [2] came out at 0%.

`CC(C)=CCC/C(C)=C/CC/C(C)=C/CSCC=O`: the outcome in experiment [1] was inactive. The inhibition in experiment [2] came to 13%.

As to `CC(C)=CCC/C(C)=C/CC/C(C)=C/CSCC(=O)NO`, the result in experiment [1] was inactive. Also, in experiment [2], the inhibition was found to be 36%.

Consider `CC(C)=CCC/C(C)=C/CC/C(C)=C/CSCC(C)O` (configuration not stated), for which the result in experiment [1] was inactive. Also, in experiment [2], the inhibition was 72%.

Turning to `COC(=O)CSCC/C=C(\C)CC/C=C(\C)CCC=C(C)C`, the result in experiment [1] was inactive. In addition, the inhibition in experiment [2] was 12%.

In the case of `COC(=O)CSC/C=C(\C)CCC=C(C)C`, in experiment [1], the result was inactive. The inhibition in experiment [2] was determined as 0%.

For `CC(C)=CCC/C(C)=C/CC/C(C)=C/CSCCCO`, the outcome in experiment [1] was inactive. Moreover, the inhibition in experiment [2] is 34%.

For the molecule `COC(=O)CSC/C=C(\C)CC/C=C(\C)CC/C=C(\C)CCC=C(C)C`, in experiment [1], the result was inactive. In experiment [2], this molecule had an inhibition of 12%.

With `CC(C)=CCC/C(C)=C/CC/C(C)=C/CC/C(C)=C/CSCCO`, the outcome in experiment [1] was inactive. Further, in experiment [2], the inhibition came out at 40%.

`CC(C)=CCC/C(C)=C/CC/C(C)=C/CSCC(O)CO` (configuration not stated): the result in experiment [1] was inactive. In experiment [2], this molecule registered an inhibition of 75%.

Turning to `COC(=O)CSC/C=C(\C)CC/C=C(\C)CCC=C(C)C`, the result in experiment [1] was inactive. The molecule also returned an inhibition in experiment [2] of 28%.

For the molecule `CC(C)=CCC/C(C)=C/CC/C(C)=C/CSC(C)(C)C(=O)O`, the outcome in experiment [1] was inactive. The same molecule returned an inhibition in experiment [2] of 27%.

For the molecule `COC(=O)CCSC/C=C(\C)CC/C=C(\C)CCC=C(C)C`, the outcome in experiment [1] was inactive. The molecule further had an inhibition in experiment [2] of 14%.

Take `CCC(C)(C)C(=O)O[C@H]1C[C@@H](C)C=C2C=C[C@H](C)[C@H](CC[C@@H]3C[C@@H](O)CC(=O)O3)[C@H]21`: the inhibition result in experiment [3] was “Active”.

Turning to `CC(C)=CCC/C(C)=C/CC/C(C)=C/CSCCO`, in experiment [4], the inhibition entry is “Active”. This molecule also registered a Kiuc in experiment [5] of 0.43 µM. Further, in experiment [1], the outcome was inactive. The IC50 (usually the concentration that inhibits the measured activity by half) in experiment [6] was 860 nM. This molecule also registered an inhibition in experiment [2] of 93%. In addition, the Kic in experiment [7] turned out to be 0.44 µM.

In the case of `CC(C)=CCC/C(C)=C/CC/C(C)=C/CSCC(=O)O`, the result in experiment [1] was inactive. In experiment [2], this molecule had an inhibition of 50%.

As to `CC(=O)SC/C=C(\C)CC/C=C(\C)CCC=C(C)C`, in experiment [1], the result was inactive. In experiment [2], this molecule displayed an inhibition of 3%.

Consider `COC(=O)C(F)(F)SC/C=C(\C)CC/C=C(\C)CCC=C(C)C`, for which, in experiment [1], the outcome was inactive. The molecule further had an inhibition in experiment [2] of 68%.

On to `CCOP(=O)(CCCSC/C=C(\C)CC/C=C(\C)CCC=C(C)C)OCC`, for which the outcome in experiment [1] was inactive. Also, the inhibition in experiment [2] turned out to be 20%.

On to `COCCSC/C=C(\C)CC/C=C(\C)CCC=C(C)C`, for which, in experiment [1], the outcome was inactive. In addition, the inhibition in experiment [2] worked out at 0%.

In the case of `CC(C)=CCC/C(C)=C/CSCCO`, the result in experiment [1] was inactive. Also, the inhibition in experiment [2] worked out at 0%.

`CC(C)=CCC/C(C)=C/CC/C(C)=C/CSC(F)(F)CO`: in experiment [1], the outcome was inactive. In addition, the inhibition in experiment [2] is 44%.

Take `CC(C)=CCC/C(C)=C/CC/C(C)=C/CSC(C)(C)CO`: in experiment [1], the result was inactive. Besides, the inhibition in experiment [2] came out at 32%.

Turning to `CC(C)=CCC/C(C)=C/CC/C(C)=C/CSCCC(=O)NO`, the result in experiment [1] was inactive. Also, in experiment [2], the inhibition came out at 22%.
